{
  "source": "patent US10738083B2",
  "about": "“Influenza virus neutralizing peptidomimetic compounds” (Janssen Vaccines & Prevention B.V., priority 2015, dated 2020)",
  "key": {"[1]": {"target": "H1 HA A/New Caledonia/20/1999 (Influenza A virus, UniProt Q6WG00)", "assay": "AlphaLISA binding competition, HA + stem-binder", "source_text": "(§1) Binding competition studies were designed to test compounds for competition with other well characterized HA binding proteins (including e.g. CR9114) with known epitopes on HA. The epitopes where either located at the stem of the HA (viral membrane proximal part of HA) or, for control purposes, at the head of HA (viral membrane distal part of HA). If competition was observed, it is assumed that both molecules bind to a similar or at least overlapping epitope at the surface of HA. Competition with a HA head- and stem-binder was interpreted as unspecific binding.\n(§2) Hereto an AlphaLISA competition assay (Perkin Elmer) was established which relied on biotinylated full length and trimeric HA proteins (Protein Sciences, 10 μL, 0.5 nM final concentration in 50 μL) bound by HA-specific binders. The interaction between HA and the binder was detected after 1 h incubation at room temperature (RT) with two beads, a streptavidin donor bead recognizing HA (10 μL of 10 μg/mL) and an anti Fc bead (10 μg/mL) recognizing the IgGs used. If after an additional hour of incubation at RT the excited donor bead (680 nm) and acceptor bead are in close proximity, an energy transfer (singlet oxygen) can be measured as a luminescence signal of the acceptor bead (Perkin Elmer EnVision plate reader). The signal intensity in this homogeneous assay format is directly proportional to the binding strength (affinity/avidity) between both binding partners."}, "[2]": {"target": "T1, H1 HA A/California/07/2009 (Influenza A virus, UniProt C3W5X2)", "assay": "AlphaLISA binding competition, HA + stem-binder", "source_text": "as §1, §2"}, "[3]": {"target": "T1, H1 HA A/California/07/2009", "assay": "AlphaLISA binding competition, HA + head-binder (control)", "source_text": "as §1, §2"}, "[4]": {"target": "HA A/New Caledonia/20/99 (H1) (Influenza A virus, UniProt Q6WG00)", "assay": "biochemical", "format": "binding", "conditions": "for koff: read-out: dissociation rate kd"}, "H1 HA A/Brisbane/59/07": {"target": "H1 HA A/Brisbane/59/07 (Influenza A virus, UniProt D5F1Q8)", "assay": "AlphaLISA binding competition, HA + stem-binder", "source_text": "as §1, §2"}, "[5]": {"target": "HA A/California/07/09 (H1) (Influenza A virus, UniProt C3W5X2)", "assay": "biochemical", "format": "binding", "conditions": "for koff: read-out: dissociation rate kd"}, "[6]": {"target": "HA A/Vietnam/1194/04 (H5) (Influenza A virus, UniProt A5A5M5)", "assay": "biochemical", "format": "binding", "conditions": "for koff: read-out: dissociation rate kd"}},
  "note": "*1 amine or outer side, *2 acyl side, *3 side chain or, on linkers, in order; H or OH if unused. Where a SMILES comes first, the peptide text is derived from it. Bridges are numbered along the chain shown (N, C = ends). [ ]: non-standard residue; d: D form. Phe(3,4-Cl2) = N[C@@H](Cc1ccc(Cl)c(Cl)c1)C(=O)O; X2 = O=C(CN(CC(=O)[*:2])CC(=O)[*:3])[*:1]; X1 = NCCC(=O)N[C@@H](CN[*:2])C(=O)[*:1]; Ala(cPent) = N[C@@H](CC1CCCC1)C(=O)O; Glutaryl = O=C(CCCC(=O)[*:2])[*:1]; hhPhe = N[C@@H](CCCc1ccccc1)C(=O)O; NMeL = CN[C@@H](CC(C)C)C(=O)O; Orn = NCCC[C@H](N)C(=O)O; βAla = NCCC(=O)O",
  "data": [
    {"smiles": "CC(=O)N[C@@H](CCCc1ccccc1)C(=O)N[C@H]1CCCNC(=O)CCNC(=O)[C@H](CO)NC(=O)[C@H](CC(C)C)NC(=O)[C@H](Cc2c[nH]c3ccccc23)NC(=O)[C@H](CCC(=O)O)NC(=O)[C@H](Cc2ccccc2)NC(=O)[C@H](Cc2ccc(O)cc2)NC(=O)[C@H](CCCNC(=N)N)NC(=O)[C@H](CC(C)C)NC1=O", "note": "[CP132070] (Ac-[hhPhe][Orn]LRYFEWLS[βAla]; lactam 2-C)", "values": [
      {"measurement": "IC50", "setting": "[1]", "result": 178, "unit": "nM"},
      {"measurement": "IC50", "setting": "[2]", "result": 288, "unit": "nM"},
      {"measurement": "IC50", "setting": "[3]", "result": "> 50100", "unit": "nM"}
    ]},
    {"smiles": "CC(=O)N[C@@H](CCCc1ccccc1)C(=O)N[C@H]1CCCNC(=O)CCNC(=O)[C@H](CO)NC(=O)[C@H](CC(C)C)NC(=O)[C@H](Cc2c[nH]c3ccccc23)NC(=O)[C@H](CCC(=O)O)NC(=O)[C@H](Cc2ccc(Cl)c(Cl)c2)NC(=O)[C@H](Cc2ccc(O)cc2)NC(=O)[C@H](CCC(=O)O)NC(=O)[C@H](CC(C)C)NC1=O", "note": "[CP141019] (Ac-[hhPhe][Orn]LEY[Phe(3,4-Cl2)]EWLS[βAla]; lactam 2-C)", "values": [
      {"measurement": "Kd", "setting": "[4]", "result": 17.8, "unit": "nM"},
      {"measurement": "koff", "setting": "[4]", "result": 0.0589, "unit": "s⁻¹"},
      {"measurement": "IC50", "setting": "[1]", "result": 50.1, "unit": "nM"},
      {"measurement": "IC50", "setting": "[2]", "result": 70.8, "unit": "nM"},
      {"measurement": "IC50", "setting": "H1 HA A/Brisbane/59/07", "result": 46.8, "unit": "nM"},
      {"measurement": "IC50", "setting": "[3]", "result": "> 50100", "unit": "nM"},
      {"measurement": "Kd", "setting": "[5]", "result": 17, "unit": "nM"},
      {"measurement": "koff", "setting": "[5]", "result": 0.182, "unit": "s⁻¹"},
      {"measurement": "Kd", "setting": "[6]", "result": 31.6, "unit": "nM"},
      {"measurement": "koff", "setting": "[6]", "result": 0.0533, "unit": "s⁻¹"}
    ]},
    {"smiles": "CC(=O)N[C@@H](CCCNC(=N)N)C(=O)N[C@H]1CCCNC(=O)CN2CC(=O)NCCC[C@@H](C(N)=O)NC(=O)[C@H](CO)NC(=O)[C@H](CC(C)C)NC(=O)[C@H](Cc3c[nH]c4ccccc34)NC(=O)[C@H](CCC(=O)O)NC(=O)[C@H](Cc3ccccc3)NC(=O)[C@H](Cc3ccc(O)cc3)NC(=O)[C@H](CCCNC(=O)C2)NC(=O)[C@H](CC(C)C)NC1=O", "note": "[CP141032] (Ac-R[Orn]L[Orn]YFEWLS[Orn]-NH2; linker 2-4-11 via X2)", "values": [
      {"measurement": "IC50", "setting": "[1]", "result": 2240, "unit": "nM"},
      {"measurement": "IC50", "setting": "[2]", "result": 9550, "unit": "nM"},
      {"measurement": "IC50", "setting": "[3]", "result": "> 50100", "unit": "nM"}
    ]},
    {"smiles": "CC(=O)N[C@@H](CCCc1ccccc1)C(=O)N[C@H]1CCCNC(=O)CCNC(=O)[C@H](CO)NC(=O)[C@H](CC(C)C)NC(=O)[C@H](Cc2c[nH]c3ccccc23)NC(=O)[C@H](CCC(=O)O)NC(=O)[C@H](Cc2ccccc2)NC(=O)[C@H](Cc2ccc(O)cc2)NC(=O)[C@H](CCC(=O)O)NC(=O)[C@H](CC2CCCC2)NC1=O", "note": "[CP141036] (Ac-[hhPhe][Orn][Ala(cPent)]EYFEWLS[βAla]; lactam 2-C)", "values": [
      {"measurement": "IC50", "setting": "[1]", "result": 135, "unit": "nM"},
      {"measurement": "IC50", "setting": "[2]", "result": 398, "unit": "nM"},
      {"measurement": "IC50", "setting": "H1 HA A/Brisbane/59/07", "result": 145, "unit": "nM"},
      {"measurement": "IC50", "setting": "[3]", "result": "> 50100", "unit": "nM"}
    ]},
    {"smiles": "CC(=O)N[C@@H](CCCc1ccccc1)C(=O)N[C@H]1CCCNC(=O)CCNC(=O)[C@H](CO)NC(=O)[C@H](CC(C)C)NC(=O)[C@H](Cc2c[nH]c3ccccc23)NC(=O)[C@H](CCC(=O)O)NC(=O)[C@H](Cc2ccccc2)NC(=O)[C@H](Cc2ccc(O)cc2)NC(=O)[C@H](CCC(=O)O)NC(=O)[C@H](CC(C)C)N(C)C1=O", "note": "[CP141037] (Ac-[hhPhe][Orn][NMeL]EYFEWLS[βAla]; lactam 2-C)", "values": [
      {"measurement": "Kd", "setting": "[4]", "result": 44.7, "unit": "nM"},
      {"measurement": "koff", "setting": "[4]", "result": 0.0753, "unit": "s⁻¹"},
      {"measurement": "IC50", "setting": "[1]", "result": 81.3, "unit": "nM"},
      {"measurement": "IC50", "setting": "[2]", "result": 204, "unit": "nM"},
      {"measurement": "IC50", "setting": "H1 HA A/Brisbane/59/07", "result": 87.1, "unit": "nM"},
      {"measurement": "IC50", "setting": "[3]", "result": "> 50100", "unit": "nM"},
      {"measurement": "Kd", "setting": "[5]", "result": 61.7, "unit": "nM"},
      {"measurement": "koff", "setting": "[5]", "result": 0.184, "unit": "s⁻¹"},
      {"measurement": "Kd", "setting": "[6]", "result": 64.6, "unit": "nM"},
      {"measurement": "koff", "setting": "[6]", "result": 0.0845, "unit": "s⁻¹"}
    ]},
    {"smiles": "CC(=O)N[C@@H](CCCc1ccccc1)C(=O)N[C@H]1CCCNC(=O)CCNC(=O)[C@H](CO)NC(=O)[C@H](CC(C)C)NC(=O)[C@H](Cc2c[nH]c3ccccc23)NC(=O)[C@H](CCC(=O)O)NC(=O)[C@H](Cc2ccccc2)NC(=O)[C@H](Cc2ccc(O)cc2)NC(=O)[C@H](CCCCNC(=O)CCCC(=O)O)NC(=O)[C@H](CC(C)C)NC1=O", "note": "[CP141066] (Ac-[hhPhe][Orn]LK(Glutaryl)YFEWLS[βAla]; lactam 2-C)", "values": [
      {"measurement": "IC50", "setting": "[1]", "result": 186, "unit": "nM"},
      {"measurement": "IC50", "setting": "[2]", "result": 245, "unit": "nM"},
      {"measurement": "IC50", "setting": "[3]", "result": "> 50100", "unit": "nM"}
    ]},
    {"smiles": "CC(=O)N[C@@H](CCCc1ccccc1)C(=O)N[C@H]1CCCNC(=O)[C@@H](NC(=O)CCN)CNC(=O)[C@H](CO)NC(=O)[C@H](CC(C)C)NC(=O)[C@H](Cc2c[nH]c3ccccc23)NC(=O)[C@H](CCC(=O)O)NC(=O)[C@H](Cc2ccccc2)NC(=O)[C@H](Cc2ccc(O)cc2)NC(=O)[C@H](CCC(=O)O)NC(=O)[C@H](CC(C)C)NC1=O", "note": "[CP141099] (Ac-[hhPhe][Orn]LEYFEWLS; linker 2-C via X1)", "values": [
      {"measurement": "Kd", "setting": "[4]", "result": 25.1, "unit": "nM"},
      {"measurement": "koff", "setting": "[4]", "result": 0.101, "unit": "s⁻¹"},
      {"measurement": "IC50", "setting": "[1]", "result": 27.5, "unit": "nM"},
      {"measurement": "IC50", "setting": "[2]", "result": 58.9, "unit": "nM"},
      {"measurement": "IC50", "setting": "H1 HA A/Brisbane/59/07", "result": 67.6, "unit": "nM"},
      {"measurement": "IC50", "setting": "[3]", "result": "> 50100", "unit": "nM"},
      {"measurement": "Kd", "setting": "[5]", "result": 26.3, "unit": "nM"},
      {"measurement": "koff", "setting": "[5]", "result": 0.252, "unit": "s⁻¹"},
      {"measurement": "Kd", "setting": "[6]", "result": 27.5, "unit": "nM"},
      {"measurement": "koff", "setting": "[6]", "result": 0.0652, "unit": "s⁻¹"}
    ]}
  ]
}
